# Experimental data taken from PMC9698773, “Design, Synthesis, Molecular Modeling, and Anticancer Evaluation of New VEGFR-2 Inhibitors Based on the Indolin-2-One Scaffold” (Pharmaceuticals, 2022).
# How the values were obtained:
# Format in all cases: cell-based, human
# MCF-7 cell line = experiment: MTT cytotoxicity assay, MCF-7
# Procedure: (§1) The cytotoxic activities against breast MCF-7 and liver HepG2 cancer cell lines for all the synthesized compounds 3a,b–17a,b were evaluated by MTT-based cytotoxicity assay. Sunitinib was selected as a reference standard in this study, and the results are presented as IC50 in Table 1.
# (§2) The anticancer activities of the target compounds 3a,b–17a,b were quantitatively assessed using the MTT protocol against the MCF-7 and HepG2 cell lines, as described in the Supplementary Materials. […]
# (§3) 4.2. Biological investigation
# (§4) 4.2.1. In vitro cytotoxic activity assay
# (§5) Citation: Abdelgawad, M.A.; Cell Line cells were obtained from the American Type Culture Collection. The cells Hayallah A.M.; Bukhari S.N.A.; were cultured using DMEM (Invitrogen/Life Technologies) supplemented with 10% FBS Musa A.; Elmowafy M.; (Hyclone,), 10 ug/ml of insulin (Sigma), and 1% penicillin‐streptomycin. All of the other Abdel‐Rahman, H.M.; chemicals and reagents were from Sigma or Invitrogen. Plate cells (cells density 1.2 – 1.8 Abd El‐Gaber, M.K. Design, × 10,000 cells/well) in a volume of 100μl complete growth medium + 100 μl of the tested Synthesis, Molecular Modeling, and compound per well in a 96‐well plate for 24 hours before the MTT assay. The tested com‐ Anticancer Evaluation of New pounds were dissolved in DMSO just before the test.
# (§6) VEGFR‐2 Inhibitors Based on the Indolin‐2‐One Scaffold. 4.2.1.1. Cell culture protocol
# (§7) Pharmaceuticals 2022, 15, x. The culture medium was removed to a centrifuge tube. The cell layer was briefly https://doi.org/10.3390/xxxxx rinsed with 5 mL of 0.25% (w/v) Trypsin and 3 mL of 0.53 mM EDTA solution to remove Academic Editor(s): Mary J. Meegan all traces of serum which contains Trypsin inhibitor. Next, 2.0 to 3.0 ml of Trypsin EDTA Received: 18 October 2022 solution was added to the flask and cells were observed under an inverted microscope Accepted: 9 November 2022 until the cell layer was dispersed (usually within 5 to 15 minutes). Then, 6.0 to 8.0 mL of Published: 14 November 2022 complete growth medium was added and cells aspirated by gently pipetting. The cell suspension was transferred to the centrifuge tube with the medium and cells from step 1, Publisher’s Note: MDPI stays neu‐and centrifuged at approximately 125 xg for 5 to 10 minutes. The supernatant was dis‐ tral with regard to jurisdictional carded and the cell pellet was suspended in fresh growth medium. Appropriate aliquots claims in published maps and institu‐ of the cell suspension were added to new culture vessels and incubated at 37°C for 24 hrs. tional affiliations. After treatment of cells with the serial concentrations of the compound to be tested, incu‐ bation was carried out for 48 h at 37 °C. The plates were examined under an inverted mi‐ croscope and proceeded for the MTT assay […]
# (§8) Submitted for possible open access 4.2.1.2. […]
# (§9) HepG‐2) were used in this test. At first, the cell lines were cultured in RPMI‐1640 medium Pharmaceuticals 2022, 15, x. https://doi.org/10.3390/xxxxx. www.mdpi.com/journal/pharmaceuticals […]
# (§10) Pharmaceuticals 2022, 15, x FOR PEER REVIEW 2 of 22 with 10% fetal bovine serum. Antibiotics (100 units/ml penicillin and100 μg/ml strepto‐ mycin) were added at 37 °C in a 5% CO2 incubator. The cell lines were seeded in a 96‐well plate at a density of 1.0 x 10^4 cells / well at 37 °C for 48 h under 5% CO2. After incubation, the cells were treated with different concentrations of the synthesized compounds and incubated for 24 h. After 24 h of drug treatment, 20 μl of MTT solution (5mg/ml) was added and incubated for 4 h. 100 μl of dimethyl sulfoxide (DMSO) was added into each well to dissolve the formed purple formazan. The colored solution was measured and recorded at an absorbance of 570 nm using a plate reader (EXL 800, USA). The relative cell viability was calculated in percentage as (A570 of treated samples/A570 of untreated sam‐ ple) X 100. The half maximal inhibitory concentration (IC50) values were presented using […]
# HepG2 cells = experiment: Cell cycle analysis (PI staining, flow cytometry); settings: HepG2, 1.13 µM, 24 h
# Procedure: The liver HepG2 cells were treated with 1.13 μM of 17a, and the effect on the cell cycle distribution was evaluated by flow cytometric analysis, as described in the Supplementary Materials. […]
# 4.2.3. Cell cycle analysis
# To determine the role of the synthesized compounds in cell cycle distribution, cell cycle analysis was performed using propidium iodide (PI) staining and flow cytometry analysis for compound 17a. A Flow Cytometry Kit for Cell Cycle Analysis (ab139418_Pro‐ pidium Iodide Flow Cytometry Kit/BD) was used in this test. HepG2 cells were treated with compound 17a (1.13 μM) for 24 h. Then, the cells were fixed in 70% ethanol at 4 °C for 12 h. After that, the cells were washed with cold PBS, incubated with 100 μl RNase A at 37 °C for 30 min, and stained with 400 μ l PI in the dark at room temperature for a further 30 min. The stained cells were measured using a BD FACSCalibur™ Flow Cytometer, and the data were analyzed using Flowing software (version 2.5.1, Turku Centre for Biotech‐
# HepG2 cell line = experiment: MTT cytotoxicity assay, HepG2; settings: for IC50: mean ± SD of three experiments
# Procedure: as §1, §2, §3, §4, §5, §6, §7, §8, §9, §10
compound,measurement,setting,value
"O=C1Nc2ccccc2C1=Nc1ccc(C(=O)NNC(=S)Nc2ccccc2)cc1 [Compound 17a, 2-(4-((2-Oxoindolin-3-ylidene)amino)benzoyl)-N-phenylhydrazinecarbothioamide]",IC50,"MCF-7 cell line; Homo sapiens, MCF7, MTT assay, mean ± SD of three experiments",1.44 ± 0.11 µM
same,"fold more potent than sunitinib, MCF-7",MCF-7 cell line; ratio of IC50 to sunitinib,three-fold
same,Cell Cycle Distribution %G0-G1,HepG2 cells,42.91%
same,Cell Cycle Distribution %G2/M,HepG2 cells,9.07%
same,Cell Cycle Distribution %S,HepG2 cells,48.02%
same,Cell Cycle Distribution %pre G1,HepG2 cells,46.38%
same,increase of cell population at S phase versus control,HepG2 cells,1.43 fold
same,phase of cell cycle arrest,HepG2 cells,S phase
same,IC50,"HepG2 cell line; Homo sapiens, HepG2, MTT assay",1.13 ± 0.06 µM
same,IC50,HepG2 cell line; MTT assay,1.13 ± 0.06 µM
same,"fold more potent than sunitinib, HepG2",HepG2 cell line; ratio of IC50 to sunitinib,two-fold
